Results as given in patent US6525001B1, “Substituted pyrimidine and pyridine herbicides” (Mid-American Commercialization Corporation, priority 1997, dated 2003).

Legend:
Type in all cases: in vivo
[1] = system: ladysthumb smartweed (Polygonum persicaria); test: Test C; conditions: PREEMERGENCE, Rate 70 g/ha
[2] = system: sandbur (Cenchrus echinatus); test: Test E pre-/postemergence/post directed
How it was run: (§1)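 Injury scored visually on a 0–100 scale (100 = complete control) 13 to 21 days after treatment. Test chemicals, formulated with surfactant in non-phytotoxic solvent, were applied to soil within one day of planting, to plants at two to four leaves (three to twenty cm), or as directed spray at plant base.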

[3] = system: johnson grass (Sorghum halepense); test: Test E pre-/postemergence/post directed
How it was run: as §1

[4] = system: itchgrass (Rottboellia exaltata); test: Test E pre-/postemergence/post directed
How it was run: as §1

[5] = system: common ragweed (Ambrosia elatior); test: Test E pre-/postemergence/post directed; conditions: POSTEMERGENCE
How it was run: as §1

[6] = system: bermudagrass (Cynodon dactylon); test: Test E pre-/postemergence/post directed
How it was run: as §1

[7] = system: large crabgrass (Digitaria sanguinalis); test: Test E pre-/postemergence/post directed
How it was run: as §1

[8] = system: pitted morningglory (Ipomoea lacunosa); test: Test E pre-/postemergence/post directed; conditions: POSTEMERGENCE
How it was run: as §1

[9] = system: Spanishneedles (Bidens bipinnata); test: Test E pre-/postemergence/post directed
How it was run: as §1

[10] = system: barnyardgrass (Echinochloa crus-galli); test: Test C; set-up: key: 0 was no effect; 100 was complete control; conditions: PREEMERGENCE
[11] = system: cotton (Gossypium hirsutum); test: Test C; set-up: key: 0 was no effect; 100 was complete control; conditions: PREEMERGENCE
[12] = system: common purslane (Portulaca oleracea); test: Test E pre-/postemergence/post directed; set-up: key: 0 is no effect; 100 is complete control
How it was run: as §1

[13] = system: tall mallow (Malva sylvestris); test: Test E pre-/postemergence/post directed; set-up: key: 0 is no effect; 100 is complete control; conditions: PREEMERGENCE
How it was run: as §1

[14] = system: common groundsel (Senecio vulgaris); test: Test E pre-/postemergence/post directed; set-up: key: 0 is no effect; 100 is complete control; conditions: PREEMERGENCE
How it was run: as §1

[15] = system: sourgrass (Trichachne insularis); test: Test E pre-/postemergence/post directed; set-up: key: 0 is no effect; 100 is complete control
How it was run: as §1

[16] = system: common ragweed (Ambrosia elatior); test: Test E pre-/postemergence/post directed; set-up: key: 0 is no effect; 100 is complete control; conditions: PREEMERGENCE
How it was run: as §1

[17] = system: bermudagrass (Cynodon dactylon); test: Test E pre-/postemergence/post directed; set-up: key: 0 is no effect; 100 is complete control; conditions: PREEMERGENCE
How it was run: as §1

[18] = system: large crabgrass (Digitaria sanguinalis); test: Test E pre-/postemergence/post directed; set-up: key: 0 is no effect; 100 is complete control; conditions: PREEMERGENCE
How it was run: as §1

[19] = system: dallisgrass (Paspalum dilatatum); test: Test E pre-/postemergence/post directed; set-up: key: 0 is no effect; 100 is complete control
How it was run: as §1

[20] = system: guineagrass (Panicum maximum); test: Test E pre-/postemergence/post directed; set-up: key: 0 is no effect; 100 is complete control
How it was run: as §1

**Q.** What does the source list for `Cc1cnc(-n2ccc(C(F)(F)F)n2)nc1Cc1cccc(C(F)(F)F)c1` [Example 2, 5-methyl-4-[[3-(trifluoromethyl)phenyl]methyl]-2-[3-(trifluoromethyl)-1H-pyrazol-1-yl]pyrimidine]?
**A.** Plant response rating, Ladysthumb [1]: 30; Plant response rating, Sandbur ([2]; POSTEMERGENCE, Rate 64 g/ha): 10; Plant response rating, Sandbur ([2]; POSTEMERGENCE, Rate 125 g/ha): 10; Plant response rating, Sandbur ([2]; POSTEMERGENCE, Rate 250 g/ha): 50; Plant response rating, Sandbur ([2]; POSTEMERGENCE, Rate 500 g/ha): 80; Plant response rating, Sandbur ([2]; PREEMERGENCE, Rate 32 g/ha): 20; Plant response rating, Sandbur ([2]; PREEMERGENCE, Rate 64 g/ha): 65; Plant response rating, Sandbur ([2]; PREEMERGENCE, Rate 125 g/ha): 90; Plant response rating, Johnsongrass ([3]; POSTEMERGENCE, Rate 32 g/ha): 10; Plant response rating, Johnsongrass ([3]; POSTEMERGENCE, Rate 64 g/ha): 60; Plant response rating, Johnsongrass ([3]; POSTEMERGENCE, Rate 125 g/ha): 60; Plant response rating, Johnsongrass ([3]; POSTEMERGENCE, Rate 250 g/ha): 80; Plant response rating, Johnsongrass ([3]; POSTEMERGENCE, Rate 500 g/ha): 95; Plant response rating, Johnsongrass ([3]; PREEMERGENCE, Rate 32 g/ha): 65; Plant response rating, Johnsongrass ([3]; PREEMERGENCE, Rate 64 g/ha): 98; Plant response rating, Johnsongrass ([3]; PREEMERGENCE, Rate 125 g/ha): 85; Plant response rating, Itchgrass ([4]; POSTEMERGENCE, Rate 32 g/ha): 40; Plant response rating, Itchgrass ([4]; POSTEMERGENCE, Rate 64 g/ha): 40; Plant response rating, Itchgrass ([4]; POSTEMERGENCE, Rate 125 g/ha): 75; Plant response rating, Itchgrass ([4]; POSTEMERGENCE, Rate 250 g/ha): 90; Plant response rating, Itchgrass ([4]; POSTEMERGENCE, Rate 500 g/ha): 95; Plant response rating, Itchgrass ([4]; PREEMERGENCE, Rate 32 g/ha): 70; Plant response rating, Itchgrass ([4]; PREEMERGENCE, Rate 64 g/ha): 75; Plant response rating, Itchgrass ([4]; PREEMERGENCE, Rate 125 g/ha): 75; Plant response rating, Itchgrass ([4]; PREEMERGENCE, Rate 250 g/ha): 95; Plant response rating, Com. ragweed ([5]; Rate 32 g/ha): 50; Plant response rating, Com. ragweed ([5]; Rate 125 g/ha): 75; Plant response rating, Com. ragweed ([5]; Rate 250 g/ha): 75; Plant response rating, Com. ragweed ([5]; Rate 500 g/ha): 75; Plant response rating, Bermudagrass ([6]; POSTEMERGENCE, Rate 32 g/ha): 10; Plant response rating, Bermudagrass ([6]; POSTEMERGENCE, Rate 64 g/ha): 20; Plant response rating, Bermudagrass ([6]; POSTEMERGENCE, Rate 125 g/ha): 35; Plant response rating, Bermudagrass ([6]; POSTEMERGENCE, Rate 250 g/ha): 50; Plant response rating, Bermudagrass ([6]; POSTEMERGENCE, Rate 500 g/ha): 75; Plant response rating, Bermudagrass ([6]; PREEMERGENCE, Rate 32 g/ha): 98; Plant response rating, Large crabgrass ([7]; POSTEMERGENCE, Rate 32 g/ha): 35; Plant response rating, Large crabgrass ([7]; POSTEMERGENCE, Rate 64 g/ha): 35; Plant response rating, Large crabgrass ([7]; POSTEMERGENCE, Rate 125 g/ha): 75; Plant response rating, Large crabgrass ([7]; POSTEMERGENCE, Rate 250 g/ha): 80; Plant response rating, Large crabgrass ([7]; POSTEMERGENCE, Rate 500 g/ha): 90; Plant response rating, Large crabgrass ([7]; PREEMERGENCE, Rate 32 g/ha): 98; Plant response rating, P. morninglory ([8]; Rate 32 g/ha): 80; Plant response rating, P. morninglory ([8]; Rate 64 g/ha): 80; Plant response rating, P. morninglory ([8]; Rate 125 g/ha): 80; Plant response rating, P. morninglory ([8]; Rate 250 g/ha): 90; Plant response rating, P. morninglory ([8]; Rate 500 g/ha): 90; Plant response rating, Spanishneedles ([9]; POSTEMERGENCE, Rate 32 g/ha): 60; Plant response rating, Spanishneedles ([9]; POSTEMERGENCE, Rate 64 g/ha): 60; Plant response rating, Spanishneedles ([9]; POSTEMERGENCE, Rate 125 g/ha): 40; Plant response rating, Spanishneedles ([9]; POSTEMERGENCE, Rate 500 g/ha): 70; Plant response rating, Spanishneedles ([9]; PREEMERGENCE, Rate 32 g/ha): 80; Plant response rating, Barnyardgrass ([10]; Rate 35 g/ha): 0; Plant response rating, Barnyardgrass ([10]; Rate 70 g/ha): 5; Plant response rating, Barnyardgrass ([10]; Rate 140 g/ha): 30; Plant response rating, Cotton ([11]; Rate 35 g/ha): 0; Plant response rating, Cotton ([11]; Rate 70 g/ha): 5; Plant response rating, Cotton ([11]; Rate 140 g/ha): 15; Plant response rating, Com. purslane ([12]; POSTEMERGENCE, Rate 32 g/ha): 65; Plant response rating, Com. purslane ([12]; POSTEMERGENCE, Rate 64 g/ha): 65; Plant response rating, Com. purslane ([12]; POSTEMERGENCE, Rate 125 g/ha): 65; Plant response rating, Com. purslane ([12]; POSTEMERGENCE, Rate 250 g/ha): 70; Plant response rating, Com. purslane ([12]; POSTEMERGENCE, Rate 500 g/ha): 70; Plant response rating, Com. purslane ([12]; PREEMERGENCE, Rate 32 g/ha): 100; Plant response rating, Com. purslane ([12]; PREEMERGENCE, Rate 64 g/ha): 100; Plant response rating, Com. purslane ([12]; PREEMERGENCE, Rate 125 g/ha): 100; Plant response rating, Com. purslane ([12]; PREEMERGENCE, Rate 250 g/ha): 100; Plant response rating, Com. purslane ([12]; PREEMERGENCE, Rate 500 g/ha): 100; Plant response rating, Tall Mallow ([13]; Rate 32 g/ha): 98; Plant response rating, Tall Mallow ([13]; Rate 64 g/ha): 100; Plant response rating, Tall Mallow ([13]; Rate 125 g/ha): 100; Plant response rating, Tall Mallow ([13]; Rate 250 g/ha): 100; Plant response rating, Tall Mallow ([13]; Rate 500 g/ha): 100; Plant response rating, Com. groundsel ([14]; Rate 32 g/ha): 100; Plant response rating, Com. groundsel ([14]; Rate 64 g/ha): 100; Plant response rating, Com. groundsel ([14]; Rate 125 g/ha): 100; Plant response rating, Com. groundsel ([14]; Rate 250 g/ha): 100; Plant response rating, Com. groundsel ([14]; Rate 500 g/ha): 100; Plant response rating, Sourgrass ([15]; POSTEMERGENCE, Rate 32 g/ha): 10; Plant response rating, Sourgrass ([15]; POSTEMERGENCE, Rate 64 g/ha): 20; Plant response rating, Sourgrass ([15]; POSTEMERGENCE, Rate 125 g/ha): 20; Plant response rating, Sourgrass ([15]; POSTEMERGENCE, Rate 250 g/ha): 40; Plant response rating, Sourgrass ([15]; POSTEMERGENCE, Rate 500 g/ha): 80; Plant response rating, Sourgrass ([15]; PREEMERGENCE, Rate 32 g/ha): 100; Plant response rating, Sourgrass ([15]; PREEMERGENCE, Rate 64 g/ha): 100; Plant response rating, Sourgrass ([15]; PREEMERGENCE, Rate 125 g/ha): 100; Plant response rating, Sourgrass ([15]; PREEMERGENCE, Rate 250 g/ha): 100; Plant response rating, Sourgrass ([15]; PREEMERGENCE, Rate 500 g/ha): 100; Plant response rating, Com. ragweed ([16]; Rate 32 g/ha): 100; Plant response rating, Com. ragweed ([16]; Rate 64 g/ha): 100; Plant response rating, Com. ragweed ([16]; Rate 125 g/ha): 100; Plant response rating, Com. ragweed ([16]; Rate 250 g/ha): 100; Plant response rating, Com. ragweed ([16]; Rate 500 g/ha): 100; Plant response rating, Bermudagrass ([17]; Rate 64 g/ha): 100; Plant response rating, Bermudagrass ([17]; Rate 125 g/ha): 100; Plant response rating, Bermudagrass ([17]; Rate 250 g/ha): 100; Plant response rating, Bermudagrass ([17]; Rate 500 g/ha): 100; Plant response rating, Large crabgrass ([18]; Rate 64 g/ha): 100; Plant response rating, Large crabgrass ([18]; Rate 125 g/ha): 100; Plant response rating, Large crabgrass ([18]; Rate 250 g/ha): 100; Plant response rating, Large crabgrass ([18]; Rate 500 g/ha): 100; Plant response rating, Dallisgrass ([19]; POSTEMERGENCE, Rate 32 g/ha): 10; Plant response rating, Dallisgrass ([19]; POSTEMERGENCE, Rate 64 g/ha): 40; Plant response rating, Dallisgrass ([19]; POSTEMERGENCE, Rate 125 g/ha): 70; Plant response rating, Dallisgrass ([19]; POSTEMERGENCE, Rate 250 g/ha): 90; Plant response rating, Dallisgrass ([19]; POSTEMERGENCE, Rate 500 g/ha): 95; Plant response rating, Dallisgrass ([19]; PREEMERGENCE, Rate 32 g/ha): 90; Plant response rating, Dallisgrass ([19]; PREEMERGENCE, Rate 64 g/ha): 100; Plant response rating, Dallisgrass ([19]; PREEMERGENCE, Rate 125 g/ha): 100; Plant response rating, Dallisgrass ([19]; PREEMERGENCE, Rate 250 g/ha): 100; Plant response rating, Dallisgrass ([19]; PREEMERGENCE, Rate 500 g/ha): 100; Plant response rating, Guineagrass ([20]; POSTEMERGENCE, Rate 32 g/ha): 5; Plant response rating, Guineagrass ([20]; POSTEMERGENCE, Rate 125 g/ha): 50; Plant response rating, Guineagrass ([20]; POSTEMERGENCE, Rate 250 g/ha): 50; Plant response rating, Guineagrass ([20]; POSTEMERGENCE, Rate 500 g/ha): 90; Plant response rating, Guineagrass ([20]; PREEMERGENCE, Rate 32 g/ha): 50; Plant response rating, Guineagrass ([20]; PREEMERGENCE, Rate 64 g/ha): 50; Plant response rating, Guineagrass ([20]; PREEMERGENCE, Rate 125 g/ha): 100; Plant response rating, Guineagrass ([20]; PREEMERGENCE, Rate 250 g/ha): 100
